US20100285964A1, “SALTS OF 2-IODO-N-[(4-METHOXY-6-METHYL-1,3, 5-TRIAZINE-2-YL) CARBAMOYL] BENZENESULFONAMIDE, METHOD FOR THE PRODUCTION THEREOF AND USE THEREOF AS HERBICIDES AND PLANT GROWTH REGULATORS” (BayerCropScience AG, priority 2007, published 2010)

How the values were obtained:
Type in all cases: in vivo
[1] = tested on: Matricaria inodora, Papaver rhoeas, Stellaria media and Viola tricolor; experiment: Pre-emergence herbicidal action, greenhouse; conditions: pre-emergence method, application rate of 0.08 kg or less of active substance per hectare, scored after 3 to 4 weeks
From the text: Seeds or rhizome pieces of mono- and dicotyledonous weeds were placed in sandy loam in cardboard pots and covered with soil. The compounds according to the invention, formulated in the form of wettable powders or emulsion concentrates, were then applied to the surface of the covering soil in the form of aqueous suspensions or emulsions at an application rate of 100 to 800 l of water/ha (converted), at various dosages.
After the treatment, the pots were placed in a greenhouse and kept under good growth conditions for the weeds. The visual scoring of the damage to the plants or the emergence damage was carried out after the emergence of the test plants after a test period of 3 to 4 weeks, by comparison with untreated controls. As shown by the results, the compounds according to the invention have good herbicidal pre-emergence activity against a broad spectrum of weed grasses and broad-leaved weeds.

[2] = tested on: Amaranthus retroflexus, Lolium multiflorum, Abuthilon theophrasti, Matricaria inodora, Ipomoea purpurea, Panicum minor, Stellaria media, Solanum nigrum …; experiment: Post-emergence herbicidal action, greenhouse; conditions: post-emergence method, application rate of 0.08 kg or less of active substance per hectare, scored after about 10 to 28 days
Procedure: Seeds or rhizome pieces of monocotyledonous and dicotyledonous weeds were placed in sandy loam in plastic pots, covered with soil and cultivated in a greenhouse under good growth conditions. Three weeks after sowing, the test plants were treated at the three-leaf stage. The compounds according to the invention, formulated as wettable powders or as emulsion concentrates, were sprayed onto the green parts of the plants at various dosages using a water application rate of from 100 to 800 l/ha (converted).

Panicum minor = experiment: Post-emergence herbicidal action, field trial (Table A-1); conditions: 20 g of ai/ha (acid equivalent for salts), 3-5-leaf stage, 25 days after application, 0%=no control, 100%=complete control
From the text: (§1) In a direct comparison, under field trial conditions (time of application 3-5-leaf stage of the weeds examined), the activities of the weed control of the free acid “2-iodo-N-[(4-methoxy-6-methyl-1,3,5-triazin-2-yl)carbamoyl]benzenesulfonamide” known from DE 27 15 786 were compared to individual salts according to the invention of 2-iodo-N-[(4-methoxy-6-methyl-1,3,5-triazin-2-yl)carbamoyl]benzenesulfonamide (compound I-3 (potassium salt of 2-iodo-N-[(4-methoxy-6-methyl-1,3,5-triazin-2-yl)carbamoyl]benzenesulfonamide) and 1-4 (magnesium salt of 2-iodo-N-[(4-methoxy-6-methyl-1,3,5-triazin-2-yl)carbamoyl]benzenesulfonamide)), evaluation being carried out 25 days after application. With respect to the activity, both a representative of a monocotyledonous weed (Panicum minor) and a representative of a dicotyledonous weed (Solanum nigrum) were scored according to the scheme below:
(§2) 0%=no control 100%=complete control

Solanum nigrum = experiment: as above; conditions: 20 g of ai/ha (acid equivalent for salts), 3-5-leaf stage, 25 days after application, 0%=no control, 100%=complete control
From the text: as §1, §2

Chenopodium album = experiment: Post-emergence herbicidal action, outdoor trial (Table A-2); conditions: 2-4-leaf stage, 28 days after application
From the text: (§3) In a further direct comparison, under outdoor trial conditions (time of application 2-4-leaf stage of the weeds examined), the activities of the weed control of the free acid “2-iodo-N-[(4-methoxy-6-methyl-1,3,5-triazin-2-yl)carbamoyl]benzene-sulfonamide” known from DE 27 15 786 were compared to the inventive Na^+ salt of 2-iodo-N-[(4-methoxy-6-methyl-1,3,5-triazin-2-yl)carbamoyl]benzenesulfonamide (compounds I-2 according to the invention) at various application rates, evaluation being carried out 28 days after application. With respect to the activity, the weeds Chenopodium album, Fagopyran repens and Pennisetum glauca were scored according to the scheme below:
as §2

Fagopyran repens = experiment: as above; conditions: 2-4-leaf stage, 28 days after application
From the text: as §3, §2

Pennisetum glauca = experiment: as above; conditions: 30 g of ai/ha (acid equivalent for salt), 2-4-leaf stage, 28 days after application
From the text: as §3, §2

broad bean (Vicia faba) = experiment: Replanting behavior, crop sown in treated soil; conditions: scored after four weeks
Procedure: (§4) In further tests, various dosages of the test substances were worked into the soil. Subsequently, various crop plants were sown in plastic pots filled with the treated soil and cultivated in a greenhouse using a day/night rhythm of 22° C./14° C. After four weeks, the plants were scored according to the scheme below.
(§5) 0%=no damage 100%=complete damage

[3] = tested on: oilseed rape (Brassica napus); experiment: Replanting behavior, crop sown in treated soil; conditions: scored after four weeks
Procedure: as §4, §5

sugar beet = experiment: Replanting behavior, crop sown in treated soil; conditions: scored after four weeks
Procedure: as §4, §5

[4] = 15 g of ai/ha (acid equivalent for salt)
[5] = 30 g of ai/ha (acid equivalent for salt)
[6] = 0.1 g of ai/ha worked into the soil
[7] = 0.5 g of ai/ha worked into the soil
[8] = 1.9 g of ai/ha worked into the soil
[9] = 7.5 g of ai/ha worked into the soil
[10] = 30 g of ai/ha worked into the soil, 0%=no damage, 100%=complete damage

2-Iodo-N-[(4-methoxy-6-methyl-1,3,5-triazin-2-yl)carbamoyl]benzenesulfonamide tetrabutylammonium salt [Compound I-18]
herbicidal activity, pre-emergence (visual scoring) [1]: very good herbicidal activity
herbicidal activity, post-emergence (visual scoring) [2]: very good herbicidal activity

2-Iodo-N-[(4-methoxy-6-methyl-1,3,5-triazin-2-yl)carbamoyl]benzenesulfonamide tetraethylammonium salt [Compound I-12]
herbicidal activity, pre-emergence (visual scoring) [1]: very good herbicidal activity
herbicidal activity, post-emergence (visual scoring) [2]: very good herbicidal activity

COc1nc(C)nc(NC(=O)NS(=O)(=O)c2ccccc2I)n1 [2-Iodo-N-[(4-methoxy-6-methyl-1,3,5-triazin-2-yl)carbamoyl]benzenesulfonamide, reference compound]
Panicum minor control in % (Panicum minor): 0%
Solanum nigrum control in % (Solanum nigrum): 70%
Chenopodium album Control in % (Chenopodium album; [4]): 90%
Chenopodium album Control in % (Chenopodium album; [5]): 98%
Fagopyran repens Control in % (Fagopyran repens; [4]): 25%
Fagopyran repens Control in % (Fagopyran repens; [5]): 40%
Pennisetum glauca Control in % (Pennisetum glauca): 80%

COc1nc(C)nc(NC(=O)NS(=O)(=O)c2ccccc2I)n1.[Li] [Compound I-1, 2-Iodo-N-[(4-methoxy-6-methyl-1,3,5-triazin-2-yl)carbamoyl]benzenesulfonamide lithium salt]
herbicidal activity, pre-emergence (visual scoring) [1]: very good herbicidal activity
herbicidal activity, post-emergence (visual scoring) [2]: very good herbicidal activity

COc1nc(C)nc(NC(=O)NS(=O)(=O)c2ccccc2I)n1.[Na] [Compound I-2, 2-Iodo-N-[(4-methoxy-6-methyl-1,3,5-triazin-2-yl)carbamoyl]benzenesulfonamide sodium salt]
herbicidal activity, pre-emergence (visual scoring) [1]: very good herbicidal activity
herbicidal activity, post-emergence (visual scoring) [2]: very good herbicidal activity
Chenopodium album Control in % (Chenopodium album; [4]): 93%
Chenopodium album Control in % (Chenopodium album; [5]): 100%
Fagopyran repens Control in % (Fagopyran repens; [4]): 30%
Fagopyran repens Control in % (Fagopyran repens; [5]): 45%
Pennisetum glauca Control in % (Pennisetum glauca): 85%
Vicia faba damage in % (broad bean (Vicia faba); [6]): 2.5%
Vicia faba damage in % (broad bean (Vicia faba); [7]): 2.5%
Vicia faba damage in % (broad bean (Vicia faba); [8]): 2.5%
Vicia faba damage in % (broad bean (Vicia faba); [9]): 49%
Vicia faba damage in % (broad bean (Vicia faba); [10]): 93%
Brassica napus damage in % [3, 6]: 0%
Brassica napus damage in % [3, 7]: 1%
Brassica napus damage in % [3, 8]: 29%
Brassica napus damage in % [3, 9]: 83%
Brassica napus damage in % [3, 10]: 94%
Sugar beet damage in % (sugar beet; [6]): 0%
Sugar beet damage in % (sugar beet; [7]): 1%
Sugar beet damage in % (sugar beet; [8]): 61%
Sugar beet damage in % (sugar beet; [9]): 85%
Sugar beet damage in % (sugar beet; [10]): 92%

COc1nc(C)nc(NC(=O)NS(=O)(=O)c2ccccc2I)n1.[K] [Compound I-3, 2-Iodo-N-[(4-methoxy-6-methyl-1,3,5-triazin-2-yl)carbamoyl]benzenesulfonamide potassium salt]
herbicidal activity, pre-emergence (visual scoring) [1]: very good herbicidal activity
herbicidal activity, post-emergence (visual scoring) [2]: very good herbicidal activity
Panicum minor control in % (Panicum minor): 30%
Solanum nigrum control in % (Solanum nigrum): 84%

COc1nc(C)nc(NC(=O)NS(=O)(=O)c2ccccc2I)n1.[Mg] [Compound I-4, 2-Iodo-N-[(4-methoxy-6-methyl-1,3,5-triazin-2-yl)carbamoyl]benzenesulfonamide magnesium salt]
herbicidal activity, pre-emergence (visual scoring) [1]: very good herbicidal activity
herbicidal activity, post-emergence (visual scoring) [2]: very good herbicidal activity
Panicum minor control in % (Panicum minor): 48%
Solanum nigrum control in % (Solanum nigrum): 85%

COc1nc(C)nc(NC(=O)NS(=O)(=O)c2ccccc2I)n1.NCCO [Compound I-19, 2-Iodo-N-[(4-methoxy-6-methyl-1,3,5-triazin-2-yl)carbamoyl]benzenesulfonamide-(2-hydroxyeth-1-yl)ammonium salt]
herbicidal activity, pre-emergence (visual scoring) [1]: very good herbicidal activity
herbicidal activity, post-emergence (visual scoring) [2]: very good herbicidal activity
